Assay results taken from patent publication US20240391948A1, “NOVEL COMPOUND THAT INHIBITS TNF-ALPHA GENERATION AND INFLAMMASOME ACTIVITY AND PREPARATION METHOD THEREFOR” (SHAPERON INC., priority 2021, published 2024).

What was measured:
Type in all cases: cell-based
[1] = system: J774A.1 (Mouse BALB/c monocyte macrophage cell line) cells; test: LPS-induced TNF-α secretion inhibition in J774A.1 cells; settings: J774.A1, 1 μM compound, graded compared to taurodeoxycholic acid (positive control), read-out: TNF-α production inhibition grade
Description: (§1) To evaluate anti-inflammatory efficacy, an inflammatory response was induced in J774A.1 (Mouse BALB/c monocyte macrophage cell line) cells derived from mouse macrophages by LPS (lipopolysaccharide) and LPS+ATP (adenosine triphosphate), and the efficacy of taurine-bile acid derivatives to inhibit the production of inflammatory cytokines (IL-1β, TNF-α) was measured. After treating J774A.1 cells with 1 μM of a taurine-bile acid derivative, the degree to which the secretion of TNF-α among cytokines was suppressed was measured in the experimental group in which an inflammatory response was induced by LPS, and the extent to which IL-1β secretion among cytokines was suppressed was measured in the experimental group in which an inflammatory response was induced with LPS+ATP. The ability of taurine-bile acid derivatives to inhibit cytokine production was graded compared to taurodeoxycholic acid, a positive control. The grading criteria are A: over 100%, B: over 50% and under 100%, C: between 20% and under 50%, and D: under 20%.

[2] = system: J774A.1 (Mouse BALB/c monocyte macrophage cell line) cells; test: LPS+ATP-induced IL-1β secretion inhibition in J774A.1 cells; settings: J774.A1, 1 μM compound, graded compared to taurodeoxycholic acid (positive control), read-out: IL-1β production inhibition grade
Description: as §1

[3] = system: U937 cells (human monocytic cell line); test: Pam2CSK4-induced TNF-α secretion inhibition in PMA-differentiated U937 cells; settings: U-937, U937 cells differentiated with PMA, read-out: TNF-α production inhibition grade (IC50)
Description: (§2) To evaluate anti-inflammatory efficacy, U937 cells (human monocytic cell line) were differentiated into macrophages using PMA (phorbol 12-myristate 13-acetate) and then induced an inflammatory response with Pam2CSK4 (Pam2CysSerLys4) or BzATP (2′(3′)—O-(4-Benzoylbenzoyl)adenosine 5′-triphosphate), the efficacy of taurine-bile acid derivatives in suppressing inflammatory cytokine (IL-1β, TNF-α) production was measured.
(§3) Using PMA, U937 cells were differentiated into macrophages, and the extent of TNF-α secretion inhibition was measured in an experimental group where taurine-bile acid derivatives was treated, followed by induction of inflammatory response with Pam2CSK4, and in the experimental group in which an inflammatory response was induced with BzATP, the extent to which IL-1β secretion among cytokines was suppressed was measured.
(§4) The ability of taurine-bile acid derivatives to inhibit cytokine production was expressed in terms of IC50 (μM) values. The standards for TNF α inhibition ability are A: less than 0.5, B: 0.5 to less than 1.0, C: 1.0 to less than 2.0, D: 2.0 or more, and the IL-1β inhibition ability grade standards are A: less than 0.05, B: 0.05 to less than 0.10, C: 0.10 or more and less than 0.20, D: 0.20 or more.

[4] = system: U937 cells (human monocytic cell line); test: BzATP-induced IL-1β secretion inhibition in PMA-differentiated U937 cells; settings: U-937, U937 cells differentiated with PMA, read-out: IL-1β production inhibition grade (IC50)
Description: as §2, §3, §4

Work on C[C@H](CCC(=O)N1CCC[C@@H](S(=O)(=O)O)C1)[C@H]1CC[C@H]2[C@@H]3CC[C@@H]4C[C@H](O)CC[C@]4(C)[C@H]3CC[C@]12C [NC10061] yielded an inhibition at 1 µM [1] of under 20%, an inhibition at 1 µM [2] of over 100% and an IC50 [3] of 500 to 1000 nM. For the same molecule, the IC50 [4] was 100 to 200 nM.

C[C@H](CCC(=O)NCCCS(=O)(=O)O)[C@H]1CC[C@H]2[C@@H]3CC[C@@H]4C[C@H](O)CC[C@]4(C)[C@H]3CC[C@]12C [NC10014] was tested, and the inhibition at 1 µM [1] was under 20%, the inhibition at 1 µM [2] was under 20% and the IC50 [3] was 1000 to 2000 nM. For the same molecule, the IC50 [4] was under 50 nM.

C[C@H](CCC(=O)NC[C@@H](C)S(=O)(=O)O)[C@H]1CC[C@H]2[C@@H]3CC[C@@H]4C[C@H](O)CC[C@]4(C)[C@H]3CC[C@]12C [NC10079] gave an inhibition at 1 µM [1] of 20 to 50%, an inhibition at 1 µM [2] of over 100% and an IC50 [3] of 500 to 1000 nM. The IC50 [4] was under 50 nM.

With C[C@H](CCC(=O)NCCOS(=O)(=O)O)[C@H]1CC[C@H]2[C@@H]3CC[C@@H]4C[C@H](O)CC[C@]4(C)[C@H]3CC[C@]12C [NC10013] the inhibition at 1 µM [1] was under 20%, the inhibition at 1 µM [2] was 50 to 100% and the IC50 [3] was 500 to 1000 nM. The IC50 [4] was 50 to 100 nM.

In the case of CC[C@H]1[C@@H](O)[C@@H]2[C@H](C[C@H](O)[C@]3(C)[C@@H]([C@H](C)CCC(=O)NC4(CS(=O)(=O)O)CC4)CC[C@@H]23)[C@@]2(C)CC[C@@H](O)C[C@@H]12 [NC50032], the inhibition at 1 µM [1] is reported as under 20%, the inhibition at 1 µM [2] is reported as 50 to 100% and the IC50 [3] is reported as at least 2000 nM. For the same molecule, the IC50 [4] was 50 to 100 nM.

In the case of C[C@H](CCC(=O)N(CCS(=O)(=O)O)Cc1ccccc1)[C@H]1CC[C@H]2[C@@H]3CC[C@@H]4C[C@H](O)CC[C@]4(C)[C@H]3CC[C@]12C [NC10056], the inhibition at 1 µM [1] is reported as 20 to 50%, the inhibition at 1 µM [2] is reported as 50 to 100% and the IC50 [3] is reported as at least 2000 nM. It also gave an IC50 [4] of 50 to 100 nM.

CC(C)[C@H](CS(=O)(=O)O)NC(=O)CC[C@@H](C)[C@H]1CC[C@H]2[C@@H]3CC[C@@H]4C[C@H](O)CC[C@]4(C)[C@H]3CC[C@]12C [NC10068] showed an inhibition at 1 µM [1] of under 20%, an inhibition at 1 µM [2] of over 100% and an IC50 [3] of under 500 nM. For the same molecule, the IC50 [4] was under 50 nM.

C[C@H](CCC(=O)NC1(CS(=O)(=O)O)CC1)[C@H]1CC[C@H]2[C@@H]3[C@H](O)C[C@@H]4C[C@H](O)CC[C@]4(C)[C@H]3C[C@H](O)[C@]12C [NC20032] showed an inhibition at 1 µM [1] of under 20%, an inhibition at 1 µM [2] of 50 to 100% and an IC50 [3] of at least 2000 nM. It also gave an IC50 [4] of under 50 nM.

C[C@H](CCC(=O)N1CC[C@@H](S(=O)(=O)O)C1)[C@H]1CC[C@H]2[C@@H]3CC[C@@H]4CC(=O)CC[C@]4(C)[C@H]3CC[C@]12C [NC30034] was tested, and the inhibition at 1 µM [1] was under 20%, the inhibition at 1 µM [2] was under 20% and the IC50 [3] was 500 to 1000 nM. The IC50 [4] was at least 200 nM.

Work on C[C@H](CCC(=O)N[C@@H](CO)CS(=O)(=O)O)[C@H]1CC[C@H]2[C@@H]3[C@H](O)C[C@@H]4C[C@H](O)CC[C@]4(C)[C@H]3C[C@H](O)[C@]12C [NC20024] yielded an inhibition at 1 µM [1] of under 20%, an inhibition at 1 µM [2] of 20 to 50% and an IC50 [3] of under 500 nM. It also gave an IC50 [4] of at least 200 nM.

CC[C@H]1[C@@H](O)[C@@H]2[C@H](C[C@H](O)[C@]3(C)[C@@H]([C@H](C)CCC(=O)N[C@@H](CC(C)C)CS(=O)(=O)O)CC[C@@H]23)[C@@]2(C)CC[C@@H](O)C[C@@H]12 [NC50030] showed an inhibition at 1 µM [1] of under 20%, an inhibition at 1 µM [2] of 50 to 100% and an IC50 [3] of at least 2000 nM. The IC50 [4] was 100 to 200 nM.

Molecule C[C@H](CCC(=O)N(CCN(C)C)CCS(=O)(=O)O)[C@H]1CC[C@H]2[C@@H]3CC[C@@H]4C[C@H](O)CC[C@]4(C)[C@H]3C[C@H](O)[C@]12C [NC10050] has an inhibition at 1 µM [1] of under 20%, an inhibition at 1 µM [2] of over 100% and an IC50 [3] of under 500 nM. It also gave an IC50 [4] of 50 to 100 nM.

CC(C)[C@@H](CS(=O)(=O)O)NC(=O)CC[C@@H](C)[C@H]1CC[C@H]2[C@@H]3CC[C@@H]4C[C@H](O)CC[C@]4(C)[C@H]3C[C@H](O)[C@]12C [NC10032] showed an inhibition at 1 µM [1] of under 20%, an inhibition at 1 µM [2] of 50 to 100% and an IC50 [3] of at least 2000 nM. For the same molecule, the IC50 [4] was 50 to 100 nM.

With CC[C@H]1[C@@H](O)[C@@H]2[C@H](C[C@H](O)[C@]3(C)[C@@H]([C@H](C)CCC(=O)N[C@@H](CO)CS(=O)(=O)O)CC[C@@H]23)[C@@]2(C)CC[C@@H](O)C[C@@H]12 [NC50024] the inhibition at 1 µM [1] was under 20%, the inhibition at 1 µM [2] was 20 to 50% and the IC50 [3] was at least 2000 nM. It also gave an IC50 [4] of at least 200 nM.

Work on C[C@H](CCC(=O)N1CC[C@H](S(=O)(=O)O)C1)[C@H]1CC[C@H]2[C@@H]3[C@H](O)C[C@@H]4C[C@H](O)CC[C@]4(C)[C@H]3C[C@H](O)[C@]12C [NC20033] yielded an inhibition at 1 µM [1] of under 20%, an inhibition at 1 µM [2] of 20 to 50% and an IC50 [3] of 1000 to 2000 nM. The IC50 [4] was 50 to 100 nM.

In the case of CC[C@H]1[C@@H](O)[C@@H]2[C@H](C[C@H](O)[C@]3(C)[C@@H]([C@H](C)CCC(=O)N(CCS(=O)(=O)O)C(C)C)CC[C@@H]23)[C@@]2(C)CC[C@@H](O)C[C@@H]12 [NC50007], the inhibition at 1 µM [1] is reported as under 20%, the inhibition at 1 µM [2] is reported as over 100% and the IC50 [3] is reported as 1000 to 2000 nM. It also gave an IC50 [4] of 50 to 100 nM.

C[C@H](CCC(=O)N1CCC[C@@H](S(=O)(=O)O)C1)[C@H]1CC[C@H]2[C@@H]3CC[C@@H]4CC(=O)CC[C@]4(C)[C@H]3CC[C@]12C [NC30010] showed an inhibition at 1 µM [1] of over 100%, an inhibition at 1 µM [2] of 50 to 100% and an IC50 [3] of 500 to 1000 nM. For the same molecule, the IC50 [4] was under 50 nM.

In the case of CC[C@H]1[C@@H](O)[C@@H]2[C@H](C[C@H](O)[C@]3(C)[C@@H]([C@H](C)CCC(=O)N[C@H](Cc4ccccc4)CS(=O)(=O)O)CC[C@@H]23)[C@@]2(C)CC[C@@H](O)C[C@@H]12 [NC50015], the inhibition at 1 µM [1] is reported as under 20%, the inhibition at 1 µM [2] is reported as over 100% and the IC50 [3] is reported as 1000 to 2000 nM. For the same molecule, the IC50 [4] was 50 to 100 nM.

Molecule CC[C@H]1[C@@H](O)[C@@H]2[C@H](CC[C@]3(C)[C@@H]([C@H](C)CCC(=O)N4CCC[C@@H](S(=O)(=O)O)C4)CC[C@@H]23)[C@@]2(C)CC[C@@H](O)C[C@@H]12 [NC40010] has an inhibition at 1 µM [1] of 50 to 100%, an inhibition at 1 µM [2] of under 20% and an IC50 [3] of 500 to 1000 nM. For the same molecule, the IC50 [4] was at least 200 nM.

C[C@H](CCC(=O)N[C@@H]1CCCC[C@@H]1S(=O)(=O)O)[C@H]1CC[C@H]2[C@@H]3[C@H](O)C[C@@H]4C[C@H](O)CC[C@]4(C)[C@H]3C[C@H](O)[C@]12C [NC20026] showed an inhibition at 1 µM [1] of under 20%, an inhibition at 1 µM [2] of 50 to 100% and an IC50 [3] of 1000 to 2000 nM. For the same molecule, the IC50 [4] was 100 to 200 nM.

Molecule C[C@H](CCC(=O)N1CCC[C@H](S(=O)(=O)O)C1)[C@H]1CC[C@H]2[C@@H]3[C@H](O)C[C@@H]4C[C@H](O)CC[C@]4(C)[C@H]3C[C@H](O)[C@]12C [NC20009] has an inhibition at 1 µM [1] of under 20%, an inhibition at 1 µM [2] of under 20% and an IC50 [3] of at least 2000 nM. It also gave an IC50 [4] of under 50 nM.

C[C@H](CCC(=O)N[C@@H]1CCCC[C@@H]1S(=O)(=O)O)[C@H]1CC[C@H]2[C@@H]3CC[C@@H]4C[C@H](O)CC[C@]4(C)[C@H]3C[C@H](O)[C@]12C [NC10041] showed an inhibition at 1 µM [1] of under 20%, an inhibition at 1 µM [2] of under 20% and an IC50 [3] of 500 to 1000 nM. For the same molecule, the IC50 [4] was at least 200 nM.
